Test [1] is filed under the species Mus musculus. As to the kind of experiment: The compound was tested for its ability to get to the tumor site after indicates that there is a percent T/C of 50 or < 50(tumor mass 50% or < the control)]. The test is classed as functional. The arrangement: scale not given here.
Test [2] deals with Mus musculus. Description: The compound was tested for its ability to get to the tumor site after subcutaneous administration [Score of 2 indicates that there is a percent T/C of 50 or < 50(tumor mass 50% or < the control)]. The format is functional.

Data on 4 compounds can be found in ChEMBL document CHEMBL1132656, “Design of highly active analogues of the pyrrolo[1,2-a]benzimidazole antitumor agents” (1999).

The compound `CC(=O)N[C@H]1CCn2c1nc1c2C(=O)C(C)=C(N2CC2)C1=O` showed an Intraperitonal score in test [1] of 38. The Subcutaneous score in test [2] is reported as 14.
`CC1=C(N2CC2)C(=O)c2nc3n(c2C1=O)CCC3OC(N)=O` (stereo not drawn) yielded an Intraperitonal score in test [1] of 24. For the same compound, the Subcutaneous score in test [2] is recorded as 6.
`CC(=O)NC1CCn2c1nc1c2C(=O)C(C)=C(N2CC2)C1=O` (stereo not drawn) had an Intraperitonal score in test [1] of 46. In addition, the Subcutaneous score in test [2] is 6.
Take `CC(=O)OC1CCn2c1nc1c2C(=O)C(C)=C(N2CC2)C1=O` (stereo not drawn): in test [1], the Intraperitonal score worked out at 40. In test [2], the Subcutaneous score is 8.
